Data reported in PMC7719179, “Small molecule inhibition of Dynamin-dependent endocytosis targets multiple niche signals and impairs leukemia stem cells” (Nature Communications, 2020).
“And” between values parts separate entries of the source, which are not always exact repeats. Identical values can stand only once.

What was measured:
[1] = system: IL-7 signalling (pStat5) in Ba/F3-IL7R cells; assay: IL-7-induced phospho-Stat5 in Ba/F3-IL7R cells (phosphoflow); assay type: cell-based, murine; conditions: for pStat5 (MFI): replicates
Procedure: (§1) Ba/F3 cells (kindly provided by a person from The Walter and Eliza Hall Institute of Medical Research) were infected with pMIG-R1/Il7r retroviral supernatants produced in 293T cells, and transduced cells were sorted with a BD Influx (BD Australia) and selected by culture in medium supplemented with 5 ng/mL rmIL-7 (#217-17, Pepro Tech, Rocky Hill NJ, USA) for 7 days. Ba/F3 cells stably expressing Il7r (Ba/F3-IL7R) were infected with TxTCPVIR-Stat5-CA retroviral supernatants produced in 293T. Cell sorting was performed with a BD Influx and transduced cells were treated with doxycycline for 48 h to induce the expression of the Stat5-CA-T2A-mCherry fusion protein.
Phosphoflow analysis was performed as previously described. Briefly, 2 × 10^6 cells stained for surface markers were subsequently resuspended into PBS 1× + 4% v/v paraformaldehyde and incubated for 10 min at 4 °C for fixation. Fixed cells were washed twice using PBS 1×, then resuspended in pre-chilled at −20 °C Perm Buffer III (BD Pharmingen) and incubated 30 min at 4 °C for permeabilization. Cells were washed twice using PBS 1× and incubated overnight at 4 °C in PBS 1× + 2% v/v fetal calf serum (FCS) with Cell Signalling purified antibodies (Genesearch Pty Ltd, Arundel QLD, Australia) against pSTAT5 (Tyr694; #9359), phospho-p38 MAPK (Thr180/Tyr182; #4511), phospho-p44/42 (Erk1/2; #9102), phospho-S6 (Ser235/236; #4856) and phospho-Akt (Ser473; #9271) or isotype control. For intracellular HES1 detection, cells stained for surface markers were subsequently fixed and permeabilized using the BD Cytofix/Cytoperm^TM Kit and incubated overnight at 4 °C in PBS 1× + 2% v/v FCS with a purified antibody against HES1 (D6PU; #11988, Cell Signalling) or isotype control. After staining with primary antibodies for phosphoflow or intracellular detection, cells were incubated in permeabilization buffer with donkey Alexa Fluor 488-conjugated anti-rabbit secondary antibody (A-21206, lot #1910751, Molecular Probes, Invitrogen) or goat Alexa Fluor 546-conjugated anti-rabbit secondary antibody (A-11035, lot #1904467, Molecular Probes, Invitrogen) for 1 h on ice, and washed twice in PBS 1×. Fluorescence-activated cell sorting (FACS) analysis was performed using LSRII and LSR Fortessa cytometers, following the gating strategies described in Supplementary Fig. 11. Cell sorting was performed with a FACSAria or BD Influx.
(§2) For in vitro IL-7 stimulation assays, cells were starved in serum-free DMEM at 37 °C, then incubated with either vehicle or Dynole 34-2 or Ruxolitinib (INCB018424; #S1378, Selleckchem), or DAPT (GSI-IX; #S2215, Selleckchem) resuspended in DMSO for 1 h. Thymocytes were subsequently stimulated with 25 ng/mL IL-7 at 37 °C for 20 min and washed twice using cold PBS 1×. Cells were incubated with 25 ng/mL Rat IgG (Sigma-Aldrich Pty Ltd, Castle Hill NSW, Australia) and with a PE-conjugated antibody for detection of IL-7R (CD127) for 1 h on ice, as described in the FACS analysis section. PE-conjugated isotype was used as negative control. Cells were washed twice, fixed and phosphoflow analysis performed as described in the FACS analysis section. The analysis was performed in triplicate and the mean fluorescence intensity (MFI) observed without stimulation was reported as 100%.

[2] = system: IL-7R at the surface of Ba/F3-IL7R cells; assay: Surface expression of IL-7R on Ba/F3-IL7R cells (flow cytometry); assay type: cell-based, murine; conditions: replicates
Procedure: as §1
Flow cytometry analyses were performed as previously described[10],[86] on single-cell suspensions stained using BD Pharmingen antibodies (BD Australia, North Ryde NSW, Australia) against mouse CD4 (RM4-5), CD8 (53-6.7), CD25 (PC61.5), CD44 (IM7), CD45.1 (A20), CD45.2 (104), Thy1.2 (53-2.1; #561616), TCRβ (H57-597), CD117 (ACK45), CD135 (A2F10.1), CD150 (TC15-12F12.2; #562373), B220 (RA3-6B2; #563708), CD3 (145-2C11; #563004), CD19 (ID3; #557655), Gr-1 (RB6-8C5; #563299 and #565033), CD11b (M1/70; #563015 and #560455), Ter119 (Ter119; #565523 and #557909), Sca-1 (D7; #558160) and an eBioscience antibody (eBioscience, Invitrogen) against mouse NOTCH1 (22E5). DN3 populations and IL-7R were stained using BioLegend antibodies (Australian Biosearch, Balcatta WA, Australia) against mouse CD28 (E18) and CD127 (A7R34), respectively. Apoptosis was measured using an antibody against AnnexinV (#556420, BD Australia) and the […] Sytox Blue (BD Australia) following the manufacturer’s protocol.
as §2

[3] = system: pre-LSC self-renewal activity; assay: Fold expansion after transplantation of DN3a thymocytes from treated Lmo2^Tg mice; assay type: in vivo, mouse; conditions: recipients of DN3a thymocytes from treated Lmo2^Tg mice; individual animals
Procedure: Single-cell suspension of murine thymus cells were intravenously injected into sublethally irradiated (650 Rads) isogenic Ly5.1 (Cd45.1) mice. Fold expansion was calculated by dividing the absolute output number of donor-derived DN3a cells harvested at the experimental endpoint by the respective number of DN3a thymocytes injected in each recipient. Limiting dilution transplantations were performed as described, by injecting various doses (10^1 to 10^6) of thymocytes per recipient, and mice were scored positive when T-cell lineage reconstitution assessed 6 weeks after transplantation was >1%. Leukemia-propagating cell frequency was calculated by applying Poisson statistics using the ELDA: Extreme Limiting Dilution Analysis software (Walter and Eliza Hall Institute Bioinformatics, Parkville VIC, Australia)[96]. Limiting dilution transplantations were performed independently from any other transplantation assays, using thymocytes from three different Lmo2^Tg mice for each cohort. Kaplan–Meier survival and statistical analysis were performed using GraphPad Prism. 6.0 software (GraphPad Software Inc, San Diego CA, USA).

SMILES: CCCCCCCCNC(=O)C(C#N)=Cc1cn(CCCN(C)C)c2ccccc12 [Dynole 34-2, 2-Cyano-N-octyl-3-(1-(3-dimethylaminopropyl)-1H-indol-3-yl)-acrylamide]
- pStat5 (MFI) ([1]; Ba/F3-IL7R cells, +IL-7, Dynole 34-2 0.2): 2033 MFI and 1947 MFI and 1891 MFI
- pStat5 (MFI) ([1]; Ba/F3-IL7R cells, +IL-7, Dynole 34-2 1.0): 1526 MFI and 1732 MFI and 1712 MFI
- pStat5 (MFI) ([1]; Ba/F3-IL7R cells, +IL-7, Dynole 34-2 5.0): 1296 MFI and 1207 MFI and 1690 MFI
- pStat5 (MFI) ([1]; Ba/F3-IL7R cells, +IL-7, Dynole 34-2 10.0): 1304 MFI and 1113 MFI and 1201 MFI
- pStat5 (MFI) ([1]; Ba/F3-IL7R cells, +IL-7, Dynole 34-2 25.0): 1259 MFI and 1141 MFI and 1161 MFI
- inhibition of IL-7 signalling as measured by loss of phospho-Stat5 ([1]; Ba/F3-IL7R cells, result in words): dose-dependent inhibition
- IC50 ([1]; Mus musculus, Ba/F3-IL7R cells + IL-7, flow cytometry, read-out: IC50, inhibition of IL-7 signalling (pStat5)): 4.29 ± 0.77 µM
- IL-7R (MFI) ([2]; +IL-7, Dynole 34-2 0.2 µM): 6459 MFI and 6071 MFI and 5354 MFI and 5835 MFI and 6042 MFI and 5962 MFI
- IL-7R (MFI) ([2]; +IL-7, Dynole 34-2 1.0 µM): 6945 MFI and 7094 MFI and 7005 MFI and 6255 MFI and 6778 MFI and 5501 MFI
- IL-7R (MFI) ([2]; +IL-7, Dynole 34-2 5.0 µM): 8484 MFI and 8092 MFI and 6662 MFI and 7158 MFI and 8274 MFI and 7535 MFI
- IL-7R (MFI) ([2]; +IL-7, Dynole 34-2 10.0 µM): 7753 MFI and 8175 MFI and 8231 MFI and 7570 MFI
- IL-7R (MFI) ([2]; +IL-7, Dynole 34-2 25.0 µM): 9215 MFI and 8603 MFI and 7481 MFI and 8221 MFI and 8215 MFI and 7582 MFI
- Fold expansion DN3a cells [3]: 3.5 fold and 2.36 fold and 9.11 fold and 4.77 fold and 13.12 fold and 6.34 fold and 25.03 fold and 63.73 fold and 32.46 fold
